For experiment [1], the target named is T1, B1R receptor of the rat (rB1R) (Rattus norvegicus, UniProt P97583).
T1 construct: expressed in transfected cells; host or cells: CHO K1 cells, stably transfected
T1 sequence (P97583 1-337): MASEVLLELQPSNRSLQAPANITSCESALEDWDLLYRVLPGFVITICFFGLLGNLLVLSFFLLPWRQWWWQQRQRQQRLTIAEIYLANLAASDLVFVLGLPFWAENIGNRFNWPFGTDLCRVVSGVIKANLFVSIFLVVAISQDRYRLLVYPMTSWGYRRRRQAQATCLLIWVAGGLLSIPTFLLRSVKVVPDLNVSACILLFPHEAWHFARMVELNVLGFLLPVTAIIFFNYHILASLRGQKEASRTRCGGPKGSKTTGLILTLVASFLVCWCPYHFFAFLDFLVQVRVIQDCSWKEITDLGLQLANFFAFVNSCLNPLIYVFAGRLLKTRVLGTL
In words: FLIPR Ca2+ functional study on bradykinin receptor 1, rB1R cells (CHO K1). Format: cell-based. The note with it: 10 μM test substance, CHO K1 cells with rat B1R, agonist Des-Arg9-bradykinin at EC80; for inhibition at 10 µM: read-out: B1R antagonism, rat [10 μM] % inhibition. The method, boiled down:
(§1)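 Stably transfected CHO K1 cells loaded with Fluo-4; FLIPR Ca2+ fluorescence (ex 488/em 540 nm, peak counts). Compounds (10 μM, or concentration series for IC50) preincubated 10–20 min, then EC80 agonist added (human: Lys-Des-Arg9-bradykinin; rat: Des-Arg9-bradykinin); % inhibition versus maximum achievable, n=2–3, N≥2.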

For experiment [2], the target named is T2, human B1R receptor (hB1R) (Homo sapiens, UniProt P46663).
T2 construct: expressed in transfected cells; host or cells: CHO K1 cells, stably transfected
T2 sequence (P46663 1-353): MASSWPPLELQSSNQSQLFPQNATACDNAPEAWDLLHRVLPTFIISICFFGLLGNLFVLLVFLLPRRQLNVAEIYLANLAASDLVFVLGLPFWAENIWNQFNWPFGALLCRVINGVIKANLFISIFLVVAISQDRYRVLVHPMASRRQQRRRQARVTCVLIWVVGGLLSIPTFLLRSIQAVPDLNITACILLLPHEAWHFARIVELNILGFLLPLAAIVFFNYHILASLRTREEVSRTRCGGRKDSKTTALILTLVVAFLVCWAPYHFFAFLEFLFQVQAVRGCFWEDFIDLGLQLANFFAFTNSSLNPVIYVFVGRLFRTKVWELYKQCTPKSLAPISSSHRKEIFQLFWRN
In words: FLIPR Ca2+ functional study on bradykinin receptor 1, hB1R cells (CHO K1). Format: cell-based. To be noted: CHO K1 cells with human B1R, agonist Lys-Des-Arg9-bradykinin at EC80; for inhibition at 10 µM: CHO-K1, 10 μM test substance, read-out: B1R antagonism, human [10 μM] % inhibition. The method in brief:
as §1

Regarding `O=C(Cc1ccc2c(c1)N(C(=O)c1ccccc1Cl)CCC2)N1CCC2(CC1)CCN(c1ccncc1)CC2` [Compound G-64, 2-[1-(2-Chloro-benzoyl)-1,2,3,4-tetrahydro-quinolin-7-yl]-1-(9-pyridin-4-yl-3,9-diazaspiro[5.5]undecan-3-yl)-ethanone], the inhibition (usually the change of the read-out against control, counted positive when it falls) at 10 µM is 96% in experiment [1] and 59% in experiment [2].
Take `O=C(c1ccc2c(c1)N(C(=O)c1ccccc1Cl)CCC2)N1CCC2(CC1)CCN(c1ccncc1)CC2` [Compound G-21, (1-(2-Chlorobenzoyl)-1,2,3,4-tetrahydroquinolin-7-yl)(9-(pyridin-4-yl)-3,9-diazaspiro[5.5]undecan-3-yl)methanone]: the inhibition at 10 µM turned out to be 101% in experiment [1] and 95% in experiment [2].
For `O=C(Cc1ccc2c(c1)N(S(=O)(=O)c1cccc3ccccc13)CCC2)N1CCC2(CCC(N3CCC3)CC2)CC1` [Compound G-54, 1-(9-(Azetidin-1-yl)-3-azaspiro[5.5]undecan-3-yl)-2-(1-(naphthalin-1-ylsulfonyl)-1,2,3,4-tetrahydroquinolin-7-yl)ethanone], in that order: 55% and 57%.
Taken in the same sequence, the figures for `O=C(c1ccc2c(c1)CN(C(=O)c1cc3ccccc3s1)CC2)N1CCC2(CC1)CCN(c1ccncc1)CC2` [Compound G-59, Benzo[b]thiophen-2-yl(7-(9-(pyridin-4-yl)-3,9-diazaspiro[5.5]undecane-3-carbonyl)-3,4-dihydroisoquinolin-2(1H)-yl)methanone] were 95% and 86%.
Consider `Cc1cccc(Cl)c1S(=O)(=O)N1CCCc2ccc(CC(=O)N3CCC4(CCN(c5ccncc5)CC4)C3)cc21` [Compound G-51, 2-(1-(2-Chloro-6-methylphenylsulfonyl)-1,2,3,4-tetrahydroquinolin-7-yl)-1-(8-(pyridin-4-yl)-2,8-diazaspiro[4.5]decan-2-yl)ethanone], for which the inhibition at 10 µM amounted to 106% in experiment [1] and 100% in experiment [2].
For `O=C(c1ccc2c(c1)CN(C(=O)c1ccc(Cl)s1)CC2)N1CCC2(CC1)CCN(c1ccncc1)CC2` [Compound G-42, (5-Chlorothiophen-2-yl)(7-(9-(pyridin-4-yl)-3,9-diazaspiro[5.5]undecane-3-carbonyl)-3,4-dihydroisoquinolin-2(1H)-yl)methanone], in that order: 102% and 100%.
For `O=C(Cc1ccc2c(c1)N(S(=O)(=O)c1cccc3ccccc13)CCC2)N1CCC2(CC1)CCN(c1ccncc1)CC2` [Compound G-17, 2-(1-(Naphthalin-1-ylsulfonyl)-1,2,3,4-tetrahydroquinolin-7-yl)-1-(9-(pyridin-4-yl)-3,9-diazaspiro[5.5]undecan-3-yl)ethanone], in that order: 89% and 97%.
Taken in the same sequence, the figures for `O=C(c1ccc2c(c1)CN(S(=O)(=O)c1ccc(F)c3ccccc13)CC2)N1CCC2(CC1)CCN(c1ccncc1)CC2` [Compound G-56, (2-(4-Fluoronaphthalin-1-ylsulfonyl)-1,2,3,4-tetrahydroisoquinolin-7-yl)(9-(pyridin-4-yl)-3,9-diazaspiro[5.5]undecan-3-yl)methanone] were 90% and 87%.
As to `Cc1cccc(Cl)c1S(=O)(=O)N1CCCc2ccc(CC(=O)N3CCC4(CC3)CCN(c3ccncc3)CC4)cc21` [Compound G-18, 2-(1-(2-Chloro-6-methylphenylsulfonyl)-1,2,3,4-tetrahydroquinolin-7-yl)-1-(9-(pyridin-4-yl)-3,9-diazaspiro[5.5]undecan-3-yl)ethanone], the inhibition at 10 µM in experiment [1] was found to be 98%; in experiment [2], 97%.
For `COc1cc(C)c(S(=O)(=O)N2CCc3onc(C(=O)N4CCC5(CC4)CCN(c4ccncc4)CC5)c3C2)c(C)c1` [Compound G-26, (5-(4-Methoxy-2,6-dimethylphenylsulfonyl)-4,5,6,7-tetrahydroisoxazolo[4,5-c]pyridin-3-yl)(9-(pyridin-4-yl)-3,9-diazaspiro[5.5]undecan-3-yl)methanone], in that order: 95% and 99%.
Consider `O=C(Nc1ccc(Cl)c(Cl)c1)N1CCc2onc(C(=O)N3CCC4(CC3)CCN(c3ccncc3)CC4)c2C1` [Compound G-46, N-(3,4-Dichlorophenyl)-3-(9-(pyridin-4-yl)-3,9-diazaspiro[5.5]undecane-3-carbonyl)-6,7-dihydroisoxazolo[4,5-c]pyridine-5(4H)-carboxamide], for which the results for the inhibition at 10 µM in experiment [1] and in experiment [2] were 57% and 35%, respectively.
Take `COc1cc(C)c(S(=O)(=O)N2CCCc3ccc(C(=O)N4CCC5(CC4)CCN(c4ccncc4)CC5)cc32)c(C)c1` [G_CC-056, [1-[(4-Methoxy-2,6-dimethyl-phenyl)sulfonyl]-1,2,3,4-tetrahydro-quinolin-7-yl]-(3-pyridin-4-yl-3,9-diazaspiro[5.5]undecan-9-yl)-methanone]: the “B1R antagonism, rat [10 μM] % inhibition” value in experiment [1] is 100%. The “B1R antagonism, human [10 μM] % inhibition” value in experiment [2] (10 μM test substance, 10 µM) was 98%.
Turning to `COc1cc(C)c(S(=O)(=O)N2CCCc3ccc(CC(=O)N4CCC5(CCC(N6CC(F)(F)C6)CC5)CC4)cc32)c(C)c1` [Compound G-34, 1-(9-(3,3-Difluoroazetidin-1-yl)-3-azaspiro[5.5]undecan-3-yl)-2-(1-(4-methoxy-2,6-dimethylphenylsulfonyl)-1,2,3,4-tetrahydroquinolin-7-yl)ethanone], the inhibition at 10 µM in experiment [1] is 86%; in experiment [2], 18%.
For `O=C(Cc1ccccc1Cl)N1CCc2ccc(C(=O)N3CCC4(CC3)CCN(c3ccncc3)CC4)cc2C1` [Compound G-43, 2-(2-Chlorophenyl)-1-(7-(9-(pyridin-4-yl)-3,9-diazaspiro[5.5]undecane-3-carbonyl)-3,4-dihydroisoquinolin-2(1H)-yl)ethanone], in that order: 102% and 99%.
On to `O=C(Cc1ccc2c(c1)N(S(=O)(=O)c1ccccc1C(F)(F)F)CCC2)N1CCC2(CCN(c3ccncc3)CC2)C1` [Compound G-57, 1-(8-(Pyridin-4-yl)-2,8-diazaspiro[4.5]decan-2-yl)-2-(1-(2-(trifluoromethyl)phenylsulfonyl)-1,2,3,4-tetrahydroquinolin-7-yl)ethanone], for which the inhibition at 10 µM in experiment [1] amounted to 101%; in experiment [2] it was 100%.
For `O=C(Cc1ccc2c(c1)N(S(=O)(=O)c1ccc(OC(F)(F)F)cc1Cl)CCC2)N1CCC2(CC1)CCN(c1ccncc1)CC2` [Compound G-35, 2-(1-(2-Chloro-4-(trifluoromethoxy)phenylsulfonyl)-1,2,3,4-tetrahydroquinolin-7-yl)-1-(9-(pyridin-4-yl)-3,9-diazaspiro[5.5]undecan-3-yl)ethanone], in that order: 101% and 79%.
Taken in the same sequence, the figures for `COc1cc(C)c(S(=O)(=O)N2CCc3ccc(C(=O)N4CCC5(CC4)CCN(c4ccncc4)CC5)cc3C2)c(C)c1` [Compound G-04, (2-(4-Methoxy-2,6-dimethylphenylsulfonyl)-1,2,3,4-tetrahydroisoquinolin-7-yl)(9-(pyridin-4-yl)-3,9-diazaspiro[5.5]undecan-3-yl)methanone] were 99% and 97%.
For `COc1cc(C)c(C(=O)N2Cc3ccc(C(=O)N4CCC5(CC4)CCN(c4ccncc4)CC5)cc3C2)c(C)c1` [Compound G-73, [2-(4-Methoxy-2,6-dimethyl-benzoyl)-2,3-dihydro-1H-isoindol-5-yl]-(9-pyridin-4-yl-3,9-diazaspiro[5.5]undecan-3-yl)-methanone], in that order: 13% and 85%.
In the case of `O=C(c1ccc(Cl)s1)N1CCc2cccc(C(=O)N3CCC4(CC3)CCN(c3ccncc3)CC4)c2C1` [Compound G-44, (5-Chlorothiophen-2-yl)(8-(9-(pyridin-4-yl)-3,9-diazaspiro[5.5]undecane-3-carbonyl)-3,4-dihydroisoquinolin-2(1H)-yl)methanone], the inhibition at 10 µM in experiment [1] came out at 62%; in experiment [2] it was 99%.
For `Cc1ccc(C(=O)N2CCc3ccc(C(=O)N4CCC5(CC4)CCN(c4ccncc4)CC5)cc3C2)s1` [Compound G-58, (5-Methylthiophen-2-yl)(7-(9-(pyridin-4-yl)-3,9-diazaspiro[5.5]undecane-3-carbonyl)-3,4-dihydroisoquinolin-2(1H)-yl)methanone], in that order: 91% and 100%.
